Reference: patent publication US8754073B2, “Substituted piperazino-dihydrothienopyrimidines” (Boehringer Ingelheim International GmbH, priority 2007, dated 2014)

Biological target: PDE4B (Homo sapiens, UniProt Q07343)
Assay: Scintillation Proximity Assay (SPA) of PDE4B enzyme activity ([H3]-cAMP cleavage)
Format: biochemical
Settings: test substance 1 μM
How it was run: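 SPA read-out: [H3]-cAMP incubated with PDE4B in assay buffer for 1 h at 30 °C, with and without test compound at 1 μM. Reaction stopped by adding yttrium silicate beads that bind the [H3]-AMP product; after 45 min settling, scintillation counted. Value is % inhibition at 1 μM.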

[1] = one-hour incubation with [H3]-cAMP at 30° C.
[2] = one-hour incubation of [H3]-cAMP with PDE4B enzyme at 30° C.

PDE4B, sequence (Q07343 whole entry, species assumed): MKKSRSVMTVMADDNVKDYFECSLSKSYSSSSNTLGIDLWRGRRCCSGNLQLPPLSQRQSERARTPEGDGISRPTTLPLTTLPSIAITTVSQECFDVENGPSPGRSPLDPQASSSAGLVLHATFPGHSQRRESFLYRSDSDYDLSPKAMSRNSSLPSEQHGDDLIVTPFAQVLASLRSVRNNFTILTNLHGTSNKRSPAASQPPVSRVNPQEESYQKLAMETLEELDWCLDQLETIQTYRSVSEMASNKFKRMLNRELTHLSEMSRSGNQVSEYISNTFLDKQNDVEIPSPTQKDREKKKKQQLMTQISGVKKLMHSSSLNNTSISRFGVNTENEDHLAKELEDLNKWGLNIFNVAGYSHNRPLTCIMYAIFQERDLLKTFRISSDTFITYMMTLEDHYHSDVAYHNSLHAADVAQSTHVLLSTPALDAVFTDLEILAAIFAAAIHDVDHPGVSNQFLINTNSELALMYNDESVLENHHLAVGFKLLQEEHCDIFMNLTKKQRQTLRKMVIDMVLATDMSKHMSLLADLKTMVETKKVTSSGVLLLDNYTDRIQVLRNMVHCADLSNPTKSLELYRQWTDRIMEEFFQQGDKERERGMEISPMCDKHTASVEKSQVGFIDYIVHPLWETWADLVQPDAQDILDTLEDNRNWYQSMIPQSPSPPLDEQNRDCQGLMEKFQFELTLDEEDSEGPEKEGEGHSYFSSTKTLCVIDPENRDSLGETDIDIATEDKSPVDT

inhibition at 1 µM [1]	inhibition at 1 µM [2]	Structure (SMILES)
95%		CN1C[C@@H](Nc2nc(N3CCC(c4nc(-c5ccccc5)c(-c5ccccc5)o4)CC3)nc3c2[S+]([O-])CC3)CCC1=O (stereo partly drawn) [Example 278, 5-{2-[4-(4,5-diphenyloxazol-2-yl)-piperidin-1-yl]-5-oxo-6,7-dihydro-5H-5λ^4-thieno[3,2-d]pyrimidin-4-ylamino}-1-methylpiperidin-2-one]
	94%	CC(C)c1noc(C2CCN(c3nc4c(c(Nc5cccc(F)c5)n3)[S+]([O-])CC4)CC2)n1 (stereo not drawn) [Example 144]
	97%	CCOC(=O)c1ccc2c(C3CCN(c4nc5c(c(NC6(CO)CC6)n4)[S+]([O-])CC5)CC3)c[nH]c2c1 (stereo not drawn) [Example 29, ethyl 3-{1-[4-(1-hydroxymethylcyclopropylamino)-5-oxo-6,7-dihydro-5H-5λ^4-thieno[3,2-d]pyrimidin-2-yl]-piperidin-4-yl}-1H-indole-6-carboxylate]
80%		CC(C)(NC(=O)c1ccc(C2CCN(c3nc4c(c(NC5CCOCC5)n3)[S+]([O-])CC4)CC2)cc1)c1ccncc1 (stereo not drawn) [Example 223]
96%		CN1C[C@@H](Nc2nc(N3CCC(C)(c4nc5cc(F)ccc5o4)CC3)nc3c2[S+]([O-])CC3)CCC1=O (stereo partly drawn) [Example 197, 5-{2-[4-(5-fluorobenzoxazol-2-yl)-4-methylpiperidin-1-yl]-5-oxo-6,7-dihydro-5H-5λ^4-thieno[3,2-d]pyrimidin-4-ylamino}-1-methylpiperidin-2-one]
90%		O=C(c1ccc(F)cc1)C1(c2ccc(F)cc2)CCN(c2nc3c(c(Nc4cccc(F)c4)n2)[S+]([O-])CC3)CC1 (stereo not drawn) [Example 299]
94%		Cc1nn(C)cc1CNC(=O)c1ccc(OC2CCN(c3nc4c(c(NC5CCOCC5)n3)[S+]([O-])CC4)CC2)cc1 (stereo not drawn) [Example 263]
	94%	[O-][S+]1CCc2nc(N3CCC(c4nc(-c5ccncc5)no4)CC3)nc(NC3(CO)CC3)c21 (stereo not drawn) [Example 116]
	95%	CN1C[C@@H](Nc2nc(N3CCC4(CC3)c3ccccc3NC(=O)N4C)nc3c2[S+]([O-])CC3)CCC1=O (stereo partly drawn) [Example 43, (S)-3′-Methyl-1-(4-(1-Methyl-6-Oxopiperidin-3-Ylamino)-5-Oxo-6,7-Dihydro-5H-5λ^4-Thieno[3,2-d]Pyrimidin-2-YL)-3′-Methyl-1′H-Spiro[Piperidin-4,4′-Quinazolin]-2′(3′H)-One]
79%		CC(C)C(=O)N1CCc2ccc(OC3CCN(c4nc5c(c(NC6CCOCC6)n4)[S+]([O-])CC5)CC3)cc2CC1 (stereo not drawn) [Example 215]
94%		CN1C[C@@H](Nc2nc(N3CCC(Oc4ccncc4)CC3)nc3c2[S+]([O-])CC3)CCC1=O (stereo partly drawn) [Example 264]
93%		Cc1cn(C)nc1CN(C)C(=O)c1cccc(C2CCN(c3nc4c(c(NC5CCOCC5)n3)[S+]([O-])CC4)CC2)c1 (stereo not drawn) [Example 258]
	94%	CC(C)[C@H](CO)Nc1nc(N2CCC(c3nnc(-c4ccc(F)cc4)o3)CC2)nc2c1[S+]([O-])CC2 (stereo partly drawn) [Example 159]
94%		CC(C)c1ccc(OC2CCN(c3nc4c(c(NC5CCOCC5)n3)[S+]([O-])CC4)CC2)cc1 (stereo not drawn) [Example 269]
91%		CC(C)[C@H](CO)Nc1nc(N2CCC(C(=O)c3ccc(F)cc3)(c3ccc(F)cc3)CC2)nc2c1[S+]([O-])CC2 (stereo partly drawn) [Example 298]
	94%	N#CC1(c2ccccc2)CCN(c2nc3c(c(NC4(CO)CC4)n2)[S+]([O-])CC3)CC1 (stereo not drawn) [Example 40]
	96%	[O-][S+]1CCc2nc(N3CCC(c4noc5cc(F)ccc45)CC3)nc(NC3CCOCC3)c21 (stereo not drawn) [Example 121]
91%		COCC1(c2ccc(Cl)cc2)CCN(c2nc3c(c(Nc4cccc(F)c4)n2)[S+]([O-])CC3)CC1 (stereo not drawn) [Example 305]
95%		[O-][S+]1CCc2nc(N3CCC(c4nc(-c5ccccc5)c(-c5ccccc5)o4)CC3)nc(NC3CCOCC3)c21 (stereo not drawn) [Example 279]
	83%	CC(C)[C@H](CO)Nc1nc(N2CCC(c3ccncc3)CC2)nc2c1[S+]([O-])CC2 (stereo partly drawn) [Example 19, (R)-3-Methyl-2-[5-Oxo-2-(3.4.5.6-Tetrahydro-2H-[4,4′]Bipyridinyl-1-Yl)-6,7-Dihydro-5H-5λ^4-Thieno[3,2-d]Pyrimidin-4-Ylamino]-Butan-1-Ol]
	96%	[O-][S+]1CCc2nc(N3CCC(c4ccc5ccccc5c4)CC3)nc(NC3CCOCC3)c21 (stereo not drawn) [Example 127]
95%		[O-][S+]1CCc2nc(N3CCC(c4nc5cccnc5[nH]4)CC3)nc(NC3CCOCC3)c21 (stereo not drawn) [Example 207]
	83%	CN1C[C@@H](Nc2nc(N3CCC4(CC3)NC(=O)Nc3ccccc34)nc3c2[S+]([O-])CC3)CCC1=O (stereo partly drawn) [Example 51]
	96%	CC(C)[C@H](CO)Nc1nc(N2CCC(c3cc4ccccc4o3)CC2)nc2c1[S+]([O-])CC2 (stereo partly drawn) [Example 157]

inhibition at 1 µM [1]	inhibition at 1 µM [2]	Structure (SMILES)
	95%	CN1C[C@@H](Nc2nc(N3CCC4(CC3)OC(=O)Nc3ccccc34)nc3c2[S+]([O-])CC3)CCC1=O (stereo partly drawn) [Example 50]
	94%	COc1ccc(C2CCN(c3nc4c(c(NC5CCOCC5)n3)[S+]([O-])CC4)CC2)cc1 (stereo not drawn) [Example 117]
86%		CC(C)[C@H](CO)Nc1nc(N2CCC(CO)(c3ccc(Cl)cc3)CC2)nc2c1[S+]([O-])CC2 (stereo partly drawn) [Example 300]
91%		CN(C(=O)c1cccc(C2CCN(c3nc4c(c(NC5CCOCC5)n3)[S+]([O-])CC4)CC2)c1)C1CCOCC1 (stereo not drawn) [Example 256]
	89%	[O-][S+]1CCc2nc(N3CCC(c4nnc5ccccn45)CC3)nc(NC3CCOCC3)c21 (stereo not drawn) [Example 124]
	92%	[O-][S+]1CCc2nc(N3CCC(c4ccccc4F)CC3)nc(NC3(CO)CC3)c21 (stereo not drawn) [Example 87]
	86%	CCc1[nH]c2ccc(F)cc2c1C1CCN(c2nc3c(c(N[C@@H](CO)C(C)C)n2)[S+]([O-])CC3)CC1 (stereo partly drawn) [Example 22, (R)-2-{2-[4-(2-Ethyl-5-Fluoro-1H-Indol-3-Yl)-Piperidin-1-Yl]-5-Oxo-6,7-Dihydro-5H-5λ^4-Thieno[3,2-d]Pyrimidin-4-Ylamino}-3-Methylbutan-1-Ol]
89%		CN1C[C@@H](Nc2nc(N3CCC(c4cc(-c5cccs5)[nH]n4)CC3)nc3c2[S+]([O-])CC3)CCC1=O (stereo partly drawn) [Example 286]
	97%	[O-][S+]1CCc2nc(N3CCC(c4nc5ccccc5o4)CC3)nc(NC3CCOCC3)c21 (stereo not drawn) [Example 99, [2-(4-Benzoxazol-2-Yl-Piperidin-1-Yl)-5-Oxo-6,7-Dihydro-5H-5λ^4-Thieno[3,2-d]Pyrimidin-4-Yl]-(Tetrahydropyran-4-Yl)-Amine]
97%		CN1C[C@@H](Nc2nc(N3CCC(c4nc(-c5ccncc5)no4)CC3)nc3c2[S+]([O-])CC3)CCC1=O (stereo partly drawn) [Example 188]
	62%	O=C1Nc2ccccc2C2(CCN(c3nc4c(c(NC5CCOCC5)n3)[S+]([O-])CC4)CC2)N1 (stereo not drawn) [Example 66]
92%		CCN(CC)CCOc1ccc(OC2CCN(c3nc4c(c(NC5CCOCC5)n3)[S+]([O-])CC4)CC2)cc1 (stereo not drawn) [Example 178, (2-{4-[4-(2-diethylamino-ethoxy)-phenoxy]-piperidin-1-yl}-5-oxo-6,7-dihydro-5H-5λ^4-thieno[3,2-d]pyrimidin-4-yl)-(tetrahydropyran-4-yl)-amine]
	92%	CCc1[nH]c2ccc(F)cc2c1C1CCN(c2nc3c(c(NC4(CO)CC4)n2)[S+]([O-])CC3)CC1 (stereo not drawn) [Example 37, (1-{2-[4-(2-Ethyl-5-Fluoro-1H-Indol-3-Yl)-Piperidin-1-Yl]-5-Oxo-6,7-Dihydro-5H-5λ^4-Thieno[3,2-d]Pyrimidin-4-Ylamino}-Cyclopropyl)-Methanol]
	93%	[O-][S+]1CCc2nc(N3CCC(c4ccc(F)cc4F)CC3)nc(NC3(CO)CC3)c21 (stereo not drawn) [Example 89, (1-{2-[4-(2,4-Difluorophenyl)-Piperidin-1-Yl]-5-Oxo-6,7-Dihydro-5H-5λ^4-Thieno[3,2-d]Pyrimidin-4-Ylamino}-Cyclopropyl)-Methanol]
92%		[O-][S+]1CCc2nc(N3CCC(Oc4ccc(F)cc4)CC3)nc(Nc3cccc(F)c3)c21 (stereo not drawn) [Example 165]
85%		CC(C)[C@H](CO)Nc1nc(N2CCC(CN(C)S(C)(=O)=O)(c3ccccc3)CC2)nc2c1[S+]([O-])CC2 (stereo partly drawn) [Example 331]
92%		O=C(O)c1ccc(OC2CCN(c3nc4c(c(NC5CCOCC5)n3)[S+]([O-])CC4)CC2)cc1 (stereo not drawn) [Example 184, 4-{1-[5-Oxo-4-(Tetrahydropyran-4-Ylamino)-6,7-Dihydro-5H-5λ^4-Thieno[3,2-d]Pyrimidin-2-Yl]-Piperidin-4-Yloxy}-Benzoic Acid]
92%		CN1C[C@@H](Nc2nc(N3CCC(CNS(C)(=O)=O)(c4ccccc4)CC3)nc3c2[S+]([O-])CC3)CCC1=O (stereo partly drawn) [Example 253, N-{1-[4-(1-Methyl-6-Oxo-Piperidin-3-Ylamino)-5-Oxo-6,7-Dihydro-5H-5λ^4-Thieno[3,2-d]Pyrimidin-2-Yl]-4-Phenylpiperidin-4-Ylmethyl}-Methanesulphonamide]
83%		[O-][S+]1CCc2nc(N3CCC(c4cc(-c5cccs5)[nH]n4)CC3)nc(NC3CCOCC3)c21 (stereo not drawn) [Example 284]
95%		[O-][S+]1CCc2nc(N3CCC(c4nc5c(o4)CCCC5)CC3)nc(NC3CCOCC3)c21 (stereo not drawn) [Example 329]
81%		Cc1nn(C)c(C)c1CNC(=O)c1ccc(C2CCN(c3nc4c(c(NC5CCOCC5)n3)[S+]([O-])CC4)CC2)cc1 (stereo not drawn) [Example 230]
	96%	[O-][S+]1CCc2nc(N3CCC(c4cc(-c5ccco5)n[nH]4)CC3)nc(NC3CCOCC3)c21 (stereo not drawn) [Example 130]
	93%	[O-][S+]1CCc2nc(N3CCC(c4cccc(Cl)c4)CC3)nc(NC3CCOCC3)c21 (stereo not drawn) [Example 69]
	85%	Cc1noc(C2CCN(c3nc4c(c(N[C@@H](CO)C(C)C)n3)[S+]([O-])CC4)CC2)n1 (stereo partly drawn) [Example 23]
